Measured values taken from the NIST ThermoML archive (doi:10.1021/je400250u).
± gives the expanded uncertainty stated by the source.

What was measured:
[1] = xn = mol fraction of the nth substance listed; details: 100 kPa, Liquid; for viscosity: Capillary tube (Ostwald / Ubbelohde) method; for mass density: Vibrating tube method
[2] = refractive index (Na D-line) (dimensionless); xn = mol fraction of the nth substance listed; details: 100 kPa, Liquid, Standard Abbe refractometry

C1CC[C@H]2CCCC[C@@H]2C1 [trans-decahydronaphthalene] + CCCCCCCCCCC
Details | mass density, [1] [kg/m3] | refractive index, [2] | viscosity, [1] [mPa·s]
293.15 K, x1 = 0.1041 | 751.02 ± 0.29 | – | 1.214 ± 0.014
293.15 K, x1 = 0.2052 | 761.89 ± 0.26 | – | 1.258 ± 0.014
293.15 K, x1 = 0.3027 | 772.86 ± 0.24 | – | 1.315 ± 0.014
293.15 K, x1 = 0.3999 | 784.34 ± 0.22 | – | 1.369 ± 0.014
293.15 K, x1 = 0.4997 | 796.76 ± 0.2 | – | 1.444 ± 0.014
293.15 K, x1 = 0.5991 | 809.74 ± 0.19 | – | 1.529 ± 0.014
293.15 K, x1 = 0.6991 | 823.47 ± 0.17 | – | 1.625 ± 0.014
293.15 K, x1 = 0.8019 | 838.4 ± 0.16 | – | 1.752 ± 0.014
293.15 K, x1 = 0.8992 | 853.35 ± 0.15 | – | 1.899 ± 0.015
293.15 K, x1 = 1 | 869.78 ± 0.13 | – | 2.112 ± 0.015
298.15 K, x1 = 0.1041 | 747.37 ± 0.29 | 1.4188 ± 0.0013 | 1.12 ± 0.014
298.15 K, x1 = 0.2052 | 758.22 ± 0.26 | 1.423 ± 0.0013 | 1.159 ± 0.013
298.15 K, x1 = 0.3027 | 769.19 ± 0.24 | 1.4272 ± 0.0013 | 1.212 ± 0.013
298.15 K, x1 = 0.3999 | 780.66 ± 0.22 | 1.4319 ± 0.0012 | 1.26 ± 0.013
298.15 K, x1 = 0.4997 | 793.09 ± 0.2 | 1.4367 ± 0.0012 | 1.326 ± 0.013
298.15 K, x1 = 0.5991 | 806.06 ± 0.19 | 1.4421 ± 0.0012 | 1.406 ± 0.014
298.15 K, x1 = 0.6991 | 819.79 ± 0.17 | 1.4476 ± 0.0012 | 1.492 ± 0.014
298.15 K, x1 = 0.8019 | 834.72 ± 0.16 | 1.4535 ± 0.0012 | 1.606 ± 0.014
298.15 K, x1 = 0.8992 | 849.65 ± 0.15 | 1.4594 ± 0.0012 | 1.741 ± 0.014
298.15 K, x1 = 1 | 866.07 ± 0.13 | 1.4662 ± 0.0012 | 1.925 ± 0.015
303.15 K, x1 = 0.1041 | 743.67 ± 0.29 | – | 1.037 ± 0.013
303.15 K, x1 = 0.2052 | 754.53 ± 0.26 | – | 1.073 ± 0.013
303.15 K, x1 = 0.3027 | 765.5 ± 0.24 | – | 1.121 ± 0.013
303.15 K, x1 = 0.3999 | 776.97 ± 0.22 | – | 1.165 ± 0.013
303.15 K, x1 = 0.4997 | 789.4 ± 0.2 | – | 1.222 ± 0.013
303.15 K, x1 = 0.5991 | 802.37 ± 0.19 | – | 1.296 ± 0.013
303.15 K, x1 = 0.6991 | 816.09 ± 0.17 | – | 1.376 ± 0.013
303.15 K, x1 = 0.8019 | 831.02 ± 0.16 | – | 1.478 ± 0.013
303.15 K, x1 = 0.8992 | 845.94 ± 0.15 | – | 1.597 ± 0.014
303.15 K, x1 = 1 | 862.34 ± 0.14 | – | 1.769 ± 0.014
308.15 K, x1 = 0.1041 | 739.97 ± 0.29 | 1.4143 ± 0.0013 | 0.965 ± 0.013
308.15 K, x1 = 0.2052 | 750.83 ± 0.26 | 1.419 ± 0.0013 | 0.996 ± 0.013
308.15 K, x1 = 0.3027 | 761.8 ± 0.24 | 1.4232 ± 0.0013 | 1.041 ± 0.013
308.15 K, x1 = 0.3999 | 773.28 ± 0.22 | 1.428 ± 0.0012 | 1.081 ± 0.013
308.15 K, x1 = 0.4997 | 785.7 ± 0.2 | 1.4331 ± 0.0012 | 1.136 ± 0.013
308.15 K, x1 = 0.5991 | 798.67 ± 0.19 | 1.4378 ± 0.0012 | 1.201 ± 0.013
308.15 K, x1 = 0.6991 | 812.39 ± 0.17 | 1.4434 ± 0.0012 | 1.274 ± 0.013
308.15 K, x1 = 0.8019 | 827.31 ± 0.16 | 1.4496 ± 0.0012 | 1.366 ± 0.013
308.15 K, x1 = 0.8992 | 842.22 ± 0.15 | 1.4559 ± 0.0012 | 1.473 ± 0.013
308.15 K, x1 = 1 | 858.61 ± 0.14 | 1.4618 ± 0.0012 | 1.628 ± 0.013
313.15 K, x1 = 0.1041 | 736.25 ± 0.29 | – | 0.9 ± 0.012
313.15 K, x1 = 0.2052 | 747.11 ± 0.26 | – | 0.929 ± 0.012
313.15 K, x1 = 0.3027 | 758.09 ± 0.24 | – | 0.972 ± 0.012
313.15 K, x1 = 0.3999 | 769.57 ± 0.22 | – | 1.006 ± 0.012
313.15 K, x1 = 0.4997 | 781.99 ± 0.21 | – | 1.058 ± 0.012
313.15 K, x1 = 0.5991 | 794.96 ± 0.19 | – | 1.117 ± 0.012
313.15 K, x1 = 0.6991 | 808.67 ± 0.17 | – | 1.182 ± 0.012
313.15 K, x1 = 0.8019 | 823.59 ± 0.16 | – | 1.267 ± 0.013
313.15 K, x1 = 0.8992 | 838.5 ± 0.15 | – | 1.364 ± 0.013
313.15 K, x1 = 1 | 854.88 ± 0.14 | – | 1.505 ± 0.013
318.15 K, x1 = 0.1041 | 732.53 ± 0.29 | 1.4099 ± 0.0013 | 0.842 ± 0.012
318.15 K, x1 = 0.2052 | 743.39 ± 0.26 | 1.4146 ± 0.0013 | 0.869 ± 0.012
318.15 K, x1 = 0.3027 | 754.37 ± 0.24 | 1.4191 ± 0.0013 | 0.908 ± 0.012
318.15 K, x1 = 0.3999 | 765.85 ± 0.22 | 1.4236 ± 0.0012 | 0.94 ± 0.012
318.15 K, x1 = 0.4997 | 778.27 ± 0.21 | 1.4281 ± 0.0012 | 0.988 ± 0.012
318.15 K, x1 = 0.5991 | 791.24 ± 0.19 | 1.4332 ± 0.0012 | 1.042 ± 0.012
318.15 K, x1 = 0.6991 | 804.95 ± 0.17 | 1.439 ± 0.0012 | 1.101 ± 0.012
318.15 K, x1 = 0.8019 | 819.87 ± 0.16 | 1.4452 ± 0.0012 | 1.18 ± 0.012
318.15 K, x1 = 0.8992 | 834.77 ± 0.15 | 1.4515 ± 0.0012 | 1.267 ± 0.012
318.15 K, x1 = 1 | 851.14 ± 0.14 | 1.4581 ± 0.0012 | 1.394 ± 0.013
323.15 K, x1 = 0.1041 | 728.79 ± 0.29 | – | 0.789 ± 0.012
323.15 K, x1 = 0.2052 | 739.66 ± 0.26 | – | 0.815 ± 0.012
323.15 K, x1 = 0.3027 | 750.64 ± 0.24 | – | 0.852 ± 0.012
323.15 K, x1 = 0.3999 | 762.12 ± 0.22 | – | 0.881 ± 0.012
323.15 K, x1 = 0.4997 | 774.54 ± 0.21 | – | 0.924 ± 0.012
323.15 K, x1 = 0.5991 | 787.51 ± 0.19 | – | 0.975 ± 0.012
323.15 K, x1 = 0.6991 | 801.22 ± 0.18 | – | 1.028 ± 0.012
323.15 K, x1 = 0.8019 | 816.14 ± 0.16 | – | 1.1 ± 0.012
323.15 K, x1 = 0.8992 | 831.03 ± 0.15 | – | 1.18 ± 0.012
323.15 K, x1 = 1 | 847.4 ± 0.14 | – | 1.295 ± 0.012
